One data set deals with TLESRs. The settings on record: humans; cited from earlier work.
Another data set relates to substance addiction. Particulars: clinical trials: cocaine addiction, methamphetamine dependence, opioid dependence, alcohol craving and intake, nicotine use, drug addiction generally; cited from earlier work.
For the next data set, the system named is reflux episodes. The settings on record: clinical trials (Castell et al.); cited from earlier work.
Data set [1] is described as follows: Solubility in crystallization solvents. Type of data set: physicochemical. The text has this:
As used herein, the terms solution and suspension are used interchangeably and are meant to include embodiments in which a compound is in a solvent or solvent mixture regardless of solubility. […] In general, solvent combinations in which a compound is soluble within a first temperature range, and poorly soluble within a second temperature range, can be used in the crystallization methods disclosed herein. Mixtures of a “good” solvent and an “anti-solvent” can also be used with temperature dependent solubilization, i.e., dissolving at elevated temperature and crystallizing at room temperature. Examples of suitable “good” solvents, i.e., solvents in which (3R)-4-{[(1S)-2-methyl-1-(2-methylpropanoyloxyl)propoxy]carbonylamino}-3-(4-chlorophenyl)butanoic acid is soluble, include methanol, ethanol, isopropanol, acetone, methyl isobutyl ketone, tetrahydrofuran, 2-methyl tetrahydrofuran, 1,4-dioxane, 1,2-ethandiol, 1,2-propanediol, 2-methoxyethanol, 2-ethoxyethanol, and a mixture of any of the foregoing.

For data set [2] the following is noted: dosed either orally or directly into the colon of a mammal; cited from earlier work.
Data set [3] can be described thus: Dynamic vapor sorption (hygroscopicity, water content). Type of data set: physicochemical. The settings on record: for water content at 50% relative humidity / water content at 95% relative humidity: dynamic vapor sorption. The source says:
In certain embodiments, crystalline (3R)-4-{[(1S)-2-methyl-1-(2-methylpropanoyloxyl)propoxy]carbonylamino}-3-(4-chlorophenyl)butanoic acid hemihydrate is hygroscopic. […] In certain embodiments, crystalline (3R)-4-{[(1S)-2-methyl-1-(2-methylpropanoyloxyl)propoxy]carbonylamino}-3-(4-chlorophenyl)butanoic acid hemihydrate comprises from about 2 wt %-about 3 wt % water. In certain embodiments, crystalline (3R)-4-{[(1S)-2-methyl-1-(2-methylpropanoyloxyl)propoxy]carbonylamino}-3-(4-chlorophenyl)butanoic acid hemihydrate contains about 2.15 wt % water at 50% relative humidity as measured by dynamic vapor sorption. In certain embodiments, crystalline (3R)-4-{[(1S)-2-methyl-1-(2-methylpropanoyloxyl)propoxy]carbonylamino}-3-(4-chlorophenyl)butanoic acid hemihydrate contains about 3 wt % water at 95% relative humidity as measured by dynamic vapor sorption.
In certain embodiments, crystalline (3R)-4-{[(1S)-2-methyl-1-(2-methylpropanoyloxyl)propoxy]carbonylamino}-3-(4-chlorophenyl)butanoic acid anhydrate contains less than about 0.05 wt % water at 50% relative humidity as measured by dynamic vapor sorption. In certain embodiments, crystalline (3R)-4-{[(1S)-2-methyl-1-(2-methylpropanoyloxyl)propoxy]carbonylamino}-3-(4-chlorophenyl)butanoic acid anhydrate contains less than about 0.1 wt % water at 95% relative humidity as measured by dynamic vapor sorption.

A short description of data set [4]: Thermogravimetric analysis (TG-FTIR). Format: physicochemical. The settings on record: for temperature at which thermal decomposition began slowly: TG-FTIR, 10 K/min, increased strongly above 190° C. The protocol:
Thermogravimetric measurements were carried out with a Netzsch Thermo-Microbalance TG 209 coupled to a Bruker FTIR Spectrometer Vector 22. The sample was contained in sample pans with a pinhole, under a N2 atmosphere. The heating rate was set at 10 K/min. […]

Data set [5] deals with retching and vomiting induced by morphine. Particulars: Suzuki et al.; cited from earlier work.
A further data set has as its system neuropathic pain. The settings on record: intrathecal; spinal-cord injury and multiple sclerosis, painful extremity paresthesias, sympathetically maintained pain; cited from earlier work.
Data set [6] deals with allodynia and hyperalgesia. The settings on record: doses lower than those required to produce sedation and impairment of motor activity; cited from earlier work.
A further data set relates to musculoskeletal pain. Particulars: in vivo; cited from earlier work.
The subject of data set [7] is emesis induced by nicotine and motion. Particulars: animal models (Chan et al.); cited from earlier work.

Turning to `NC[C@H](CC(=O)O)c1ccc(Cl)cc1` [(R)-baclofen, (R)-4-amino-3-(4-chlorophenyl)butanoic acid], the “effect on TLESRs” value with TLESRs is “reduce TLESRs”. Further, the “efficacy in treating addiction” value with substance addiction was “effective”.

`CC(C)C(=O)O[C@@H](OC(=O)NC[C@H](CC(=O)O)c1ccc(Cl)cc1)C(C)C` [Compound 1, (3R)-4-{[(1S)-2-methyl-1-(2-methylpropanoyloxyl)propoxy]carbonylamino}-3-(4-chlorophenyl)butanoic acid]: in the data set on reflux episodes, the “effect on reflux episodes” value is “reduce reflux episodes”. In addition, the “solubility in "good" solvents” value in data set [1] (methanol, ethanol, isopropanol, acetone, methyl isobutyl ketone, tetrahydrofuran, 2-methyl tetrahydrofuran, 1,4-dioxane, 1,2-ethandiol, 1,2-propanediol, 2-methoxyethanol, 2-ethoxyethanol) is listed as “soluble”. Moreover, the “solubility in "anti-solvents"” value in data set [1] (water, diethyl ether, diisopropyl ether, methyl t-butyl ether, toluene, chlorobenzene, alkanes, cyclohexane, methylcyclohexane) is given as “poor solubility”. Moreover, the “bioavailability as R-baclofen” value in data set [2] is on record as “high bioavailability”.

As to “(3R)-4-{[(1S)-2-methyl-1-(2-methylpropanoyloxyl)propoxy]carbonylamino}-3-(4-chlorophenyl)butanoic acid hemihydrate”, in data set [3], the hygroscopicity entry is given as “hygroscopic”, the “water content at 50% relative humidity” value is “about 2.15 wt %” and the “water content at 95% relative humidity” value is reported as “about 3 wt %”. The “hygroscopicity above about 60% relative humidity” value in data set [3] (above about 60% relative humidity) was “slightly hygroscopic”. The “temperature at which thermal decomposition began slowly” value in data set [4] is “about 170 °C”. Besides, the “weight loss up to 170° C.” value in [4] (scan rate 10 K/min, N2 atmosphere, loss predominantly between 80° C. and 130° C., attributable to water) is given as “about 2.1%”.

In the case of `CC(C)C(=O)O[C@@H](OC(=O)NC[C@H](CC(=O)O)c1ccc(Cl)cc1)C(C)C` [(3R)-4-{[(1S)-2-methyl-1-(2-methylpropanoyloxyl)propoxy]carbonylamino}-3-(4-chlorophenyl)butanoic acid anhydrate], in data set [3], the hygroscopicity result is given as “not hygroscopic”, the “water content at 50% relative humidity” value is reported as “less than 0.05 wt %” and the “water content at 95% relative humidity” value was “less than 0.1 wt %”. Besides, the “temperature at which thermal decomposition began slowly” value in data set [4] was “about 170 °C”. Also, the “weight loss up to 180° C.” value in data set [4] (scan rate 10 K/min, N2 atmosphere) is “very little weight loss”.

For the compound `NCC(CC(=O)O)c1ccc(Cl)cc1` (racemic) [baclofen, (±)-4-amino-3-(4-chlorophenyl)butanoic acid], the “effect on retching and vomiting induced by morphine” value in data set [5] was “suppress the retching and vomiting”. For the same compound, the “efficacy in treating neuropathic pain” value with neuropathic pain is “effective”. Besides, in data set [6], the “effect on allodynia and hyperalgesia” value is “inhibits allodynia and hyperalgesia”. The “efficacy in treating migraine, tension-type headaches, low-back pain and radiculopathy” value in the data set on musculoskeletal pain was “effective”. In addition, the “effect on emesis induced by nicotine and motion” value in data set [7] is “antagonize emesis”.

These data come from patent publication US9265748B2, “Anhydrous and hemihydrate crystalline forms of an (R)-baclofen prodrug, methods of synthesis and methods of use” (XenoPort, Inc., priority 2011, dated 2016).
